Experimental data: patent US10188634B2, “3-(3H-imidazo[4,5-C]pyridin-2-yl)-1 H-pyrazolo[4,3-B]pyridines and therapeutic uses thereof” (Samumed, LLC, priority 2015, dated 2019)

Experiments:
Format in all cases: cell-based
SW480 colon cancer cells = assay: Cell viability assay (CellTiter-Blue) in SW480 colon cancer cells; details: Homo sapiens, 96 h; for inhibition at 10 µM: four days, CellTiter-Blue, read-out: percent inhibition at 10 μM (given for EC50 of >10 μM); for EC50: four days incubation, CellTiter-Blue cell viability
Method in brief: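 Four-day exposure of SW480 cells (~2×10^3/well) to compound from 10 μM down to 0.004 μM in 1:3 steps, in duplicate. Resorufin fluorescence from CellTiter-Blue after ~3 h served as the viability read-out. EC50 values came from nonlinear curve fits, with % inhibition at 10 μM given where EC50 >10 μM.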

[1] = system: LL29 cells (primary human fibroblasts derived from IPF patients) treated with TGF-β1, α-smooth muscle actin; assay: Inhibition of the fibrotic process: αSMA staining in TGF-β1 treated primary human fibroblasts from IPF patients (LL29 cells); details: Fibroblast, 96 h; for EC50: LL29 cells treated with TGF-β1 (20 ng/mL), 4 days; for inhibition at 10 µM: LL29 cells treated with TGF-β1, 4 days, read-out: percent inhibition in brackets (given for EC50 >10 μM)
IL-6 in THP-1 cells = assay: Inhibition of IL-6 in LPS-stimulated THP-1 human monocyte cells (HTRF); details: IL-6 HTRF; for EC50: 500 ng/mL LPS, 22 hours; for inhibition at 10 µM: LPS, read-out: percent inhibition in brackets (given for EC50 >10 μM)
Method in brief: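 IL-6 was quantified by HTRF ratio after LPS (500 ng/mL, 22 h) stimulation of THP-1 monocytes pretreated 2 h with compound, 10-point 1:3 dilutions from 10 μM, 0.1% DMSO. Cells were held in 1% FBS for 24 h beforehand. Values normalised to DMSO; four-parameter EC50, or % inhibition at 10 μM above that.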

Row | SMILES | EC50 (SW480 colon cancer cells) | EC50 (IL-6 in THP-1 cells) | inhibition at 10 µM (SW480 colon cancer cells) | EC50 [1] | inhibition at 10 µM [1] | inhibition at 10 µM (IL-6 in THP-1 cells)
1 | Cc1cn(-c2cncc3[nH]c(-c4n[nH]c5ccc(-c6cncc(NC(=O)CC(C)C)c6)nc45)nc23)cn1 [Compound 198, 3-Methyl-N-(5-(3-(7-(4-methyl-1H-imidazol-1-yl)-3H-imidazo[4,5-c]pyridin-2-yl)-1H-pyrazolo[4,3-b]pyridin-5-yl)pyridin-3-yl)butanamide] | > 10 µM | > 10 µM | 4.2% | > 10 µM | 0% | 14.5%
2 | Cc1cn(-c2cncc3[nH]c(-c4n[nH]c5ccc(-c6cncc(NC(=O)C(C)(C)C)c6)nc45)nc23)cn1 [Compound 204, N-(5-(3-(7-(4-methyl-1H-imidazol-1-yl)-3H-imidazo[4,5-c]pyridin-2-yl)-1H-pyrazolo[4,3-b]pyridin-5-yl)pyridin-3-yl)pivalamide] | > 10 µM | > 10 µM | 4.7% | > 10 µM | 0% | 24.5%
3 | Cc1cn(-c2cncc3[nH]c(-c4n[nH]c5ccc(-c6cncc(CN7CCCC7)c6)nc45)nc23)cn1 [Compound 210, 3-(7-(4-Methyl-1H-imidazol-1-yl)-3H-imidazo[4,5-c]pyridin-2-yl)-5-(5-(pyrrolidin-1-ylmethyl)pyridin-3-yl)-1H-pyrazolo[4,3-b]pyridine] | > 10 µM | > 10 µM | 4% | > 10 µM | 0% | 13%
4 | Cc1cn(-c2cncc3[nH]c(-c4n[nH]c5ccc(-c6cncc(NC(=O)C7CCC7)c6)nc45)nc23)cn1 [Compound 217, N-(5-(3-(7-(4-Methyl-1H-imidazol-1-yl)-3H-imidazo[4,5-c]pyridin-2-yl)-1H-pyrazolo[4,3-b]pyridin-5-yl)pyridin-3-yl)cyclobutanecarboxamide] | > 10 µM | > 10 µM | 0% | > 10 µM | 18.8% | 36.5%
5 | CN1CCN(c2cncc3[nH]c(-c4n[nH]c5ccc(-c6cncc(N)c6)nc45)nc23)CC1 [Compound 227, 5-(3-(7-(4-Methylpiperazin-1-yl)-3H-imidazo[4,5-c]pyridin-2-yl)-1H-pyrazolo[4,3-b]pyridin-5-yl)pyridin-3-amine] | > 10 µM | > 10 µM | 0% | 4.83 µM | – | 38%
6 | CC(C)C(=O)Nc1cncc(-c2ccc3[nH]nc(-c4nc5c(N6CCN(C)CC6)cncc5[nH]4)c3n2)c1 [Compound 233, N-(5-(3-(7-(4-Methylpiperazin-1-yl)-3H-imidazo[4,5-c]pyridin-2-yl)-1H-pyrazolo[4,3-b]pyridin-5-yl)pyridin-3-yl)isobutyramide] | > 10 µM | > 10 µM | 1% | > 10 µM | 3.4% | 36.7%
7 | CN1CCN(c2cncc3[nH]c(-c4n[nH]c5ccc(-c6cncc(NC(=O)C7CCCC7)c6)nc45)nc23)CC1 [Compound 246, N-(5-(3-(7-(4-Methylpiperazin-1-yl)-3H-imidazo[4,5-c]pyridin-2-yl)-1H-pyrazolo[4,3-b]pyridin-5-yl)pyridin-3-yl)cyclopentanecarboxamide] | > 10 µM | > 10 µM | 1% | > 10 µM | 48.7% | 0%
8 | CN1CCN(c2cncc3[nH]c(-c4n[nH]c5ccc(-c6cncnc6)nc45)nc23)CC1 [Compound 251, 3-(7-(4-Methylpiperazin-1-yl)-3H-imidazo[4,5-c]pyridin-2-yl)-5-(pyrimidin-5-yl)-1H-pyrazolo[4,3-b]pyridine] | > 10 µM | > 10 µM | 0% | > 10 µM | 44.6% | 31.8%
9 | O=C(Nc1cncc(-c2ccc3[nH]nc(-c4nc5c(-c6ccsc6)cncc5[nH]4)c3n2)c1)c1ccccc1 [Compound 263, N-(5-(3-(7-(Thiophen-3-yl)-3H-imidazo[4,5-c]pyridin-2-yl)-1H-pyrazolo[4,3-b]pyridin-5-yl)pyridin-3-yl)benzamide] | > 10 µM | > 10 µM | 0.3% | > 10 µM | 0% | 36.3%
10 | CCNCc1cncc(-c2ccc3[nH]nc(-c4nc5c(-c6ccoc6)cncc5[nH]4)c3n2)c1 [Compound 286, N-((5-(3-(7-(Furan-3-yl)-3H-imidazo[4,5-c]pyridin-2-yl)-1H-pyrazolo[4,3-b]pyridin-5-yl)pyridin-3-yl)methyl)ethanamine] | 2.13 µM | > 10 µM | – | > 10 µM | 0% | 14.5%
11 | CCCCC(=O)Nc1cncc(-c2ccc3[nH]nc(-c4nc5c(-c6ccoc6)cncc5[nH]4)c3n2)c1 [Compound 299, N-(5-(3-(7-(Furan-3-yl)-3H-imidazo[4,5-c]pyridin-2-yl)-1H-pyrazolo[4,3-b]pyridin-5-yl)pyridin-3-yl)pentanamide] | > 10 µM | > 10 µM | 6.7% | > 10 µM | 38.1% | 48.6%

Continued, in another order:

Row | EC50 (SW480 colon cancer cells) | EC50 (IL-6 in THP-1 cells) | SMILES | inhibition at 10 µM (SW480 colon cancer cells) | EC50 [1] | inhibition at 10 µM [1] | inhibition at 10 µM (IL-6 in THP-1 cells)
12 | > 10 µM | > 10 µM | CCC(=O)Nc1cncc(-c2ccc3[nH]nc(-c4nc5c(-c6cccs6)cncc5[nH]4)c3n2)c1 [Compound 309, N-(5-(3-(7-(Thiophen-2-yl)-3H-imidazo[4,5-c]pyridin-2-yl)-1H-pyrazolo[4,3-b]pyridin-5-yl)pyridin-3-yl)propionamide] | 0% | > 10 µM | 0% | 31.2%
13 | 4.74 µM | > 10 µM | CN(C)Cc1cncc(-c2ccc3[nH]nc(-c4nc5c(-c6cccs6)cncc5[nH]4)c3n2)c1 [Compound 321, N,N-dimethyl-1-(5-(3-(7-(thiophen-2-yl)-3H-imidazo[4,5-c]pyridin-2-yl)-1H-pyrazolo[4,3-b]pyridin-5-yl)pyridin-3-yl)methanamine] | – | 7.46 µM | – | 22.2%
14 | > 10 µM | > 10 µM | c1csc(-c2cncc3[nH]c(-c4n[nH]c5ccc(-c6ccncc6)nc45)nc23)c1 [Compound 326, 5-(Pyridin-4-yl)-3-(7-(thiophen-2-yl)-3H-imidazo[4,5-c]pyridin-2-yl)-1H-pyrazolo[4,3-b]pyridine] | 0% | > 10 µM | 26.6% | 22.3%
15 | > 10 µM | > 10 µM | O=C(Nc1cncc(-c2ccc3[nH]nc(-c4nc5c(-c6cccs6)cncc5[nH]4)c3n2)c1)C1CC1 [Compound 328, N-(5-(3-(7-(Thiophen-2-yl)-3H-imidazo[4,5-c]pyridin-2-yl)-1H-pyrazolo[4,3-b]pyridin-5-yl)pyridin-3-yl)cyclopropanecarboxamide] | 10% | > 10 µM | 0% | 40.6%
16 | > 10 µM | > 10 µM | Cc1ccc(-c2cncc3[nH]c(-c4n[nH]c5ccc(-c6cncc(NC(=O)C(C)C)c6)nc45)nc23)s1 [Compound 373, N-(5-(3-(7-(5-Methylthiophen-2-yl)-3H-imidazo[4,5-c]pyridin-2-yl)-1H-pyrazolo[4,3-b]pyridin-5-yl)pyridin-3-yl)isobutyramide] | 2.6% | 2.63 µM | – | 41.3%
